The record followed here is US20130096119A1, “Isoquinolin-3-Ylurea Derivatives” (priority 2010, published 2013).

Converted amounts (≈) assume the structure as drawn.

In the first assay the test system is S. pneumoniae ATCC 49619. As to the kind of experiment: Minimal inhibitory concentration (MIC) by microdilution method (CLSI M7-A7). It is filed as cell-based, Streptococcus pneumoniae. The note with it: Streptococcus pneumoniae, ATCC49619, cation-adjusted Mueller-Hinton Broth supplemented with 3% (v/v) lysed horse blood. The gist of the method: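 For S. pneumoniae, cation-adjusted Mueller-Hinton broth carried 3% (v/v) lysed horse blood; MICs (mg/l) were read by CLSI M7-A7 microdilution.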
As a reminder, the MIC is the smallest concentration in the dilution series that meets the test's criterion for growth inhibition. `CCNC(=O)Nc1cc2c(F)c(NCc3ccccc3)cc(C)c2cn1` [Example 57, 1-(6-benzylamino-5-fluoro-8-methyl-isoquinolin-3-yl)-3-ethyl-urea] had an MIC of 0.5 µg/mL (≈ 1.42 µM).

In turn, `CCNC(=O)Nc1cc2cccc(Nc3cccc(C(=O)OC)n3)c2cn1.Cl` [Example 166, 6-[3-(3-ethyl-ureido)-isoquinolin-8-ylamino]-pyridine-2-carboxylic acid methyl ester hydrochloride] gave an MIC of 8 µg/mL.

Compound `CCNC(=O)Nc1cc2cccc(Nc3cc(OC)ccn3)c2cn1.Cl` [Example 160, 1-ethyl-3-[8-(4-methoxy-pyridin-2-ylamino)-isoquinolin-3-yl]-urea hydrochloride] returned an MIC of 2 µg/mL.

Consider `CCNC(=O)Nc1cc2c(-c3cccc(S(N)(=O)=O)c3)ccc(C)c2cn1` [Example 13, 3-[3-(3-ethyl-ureido)-8-methyl-isoquinolin-5-yl]-benzenesulfonamide], for which it took 2 µg/mL (≈ 5.2 µM) to inhibit growth (MIC).

Regarding `CCNC(=O)Nc1cc2c(F)c(NCc3ccccc3)cc(Nc3cccnc3)c2cn1` [Example 240, 1-[6-benzylamino-5-fluoro-8-(pyridin-3-ylamino)-isoquinolin-3-yl]-3-ethyl-urea], 2 µg/mL (≈ 4.65 µM) was the least that counted as inhibitory (MIC).

In the case of `CCNC(=O)Nc1cc2cccc(Cn3ccnc3C(=O)O)c2cn1` [Example 294, 1-[3-(3-ethyl-ureido)-isoquinolin-8-ylmethyl]-1H-imidazole-2-carboxylic acid], it took 4 µg/mL (≈ 11.8 µM) to inhibit growth (MIC).

For the compound `CCNC(=O)Nc1cc2cccc(Nc3cccc(OC)c3)c2cn1` [Example 168, 1-ethyl-3-[8-(3-methoxy-phenylamino)-isoquinolin-3-yl]-urea], the MIC amounted to 0.5 µg/mL (≈ 1.49 µM).

Turning to `CCNC(=O)Nc1cc2cccc(Cn3ccnc3C)c2cn1` [Example 297, 1-ethyl-3-[8-(2-methyl-imidazol-1-ylmethyl)-isoquinolin-3-yl]-urea], the MIC is 4 µg/mL (≈ 12.9 µM).

In the case of `CCNC(=O)Nc1cc2c(-c3ccncc3)ccc(C)c2cn1` [Example 61, 1-ethyl-3-(8-methyl-5-pyridin-4-yl-isoquinolin-3-yl)-urea], 1 µg/mL (≈ 3.26 µM) was the least that counted as inhibitory (MIC).

Regarding `CCNC(=O)Nc1cc2cccc(Cn3cc(C)cn3)c2cn1` [Example 300, 1-ethyl-3-[8-(4-methyl-pyrazol-1-ylmethyl)-isoquinolin-3-yl]-urea], the MIC is 4 µg/mL (≈ 12.9 µM).

Consider `CCNC(=O)Nc1cc2cccc(NCc3cccnc3)c2cn1` [Example 71, 1-ethyl-3-{8-[(pyridin-3-ylmethyl)-amino]-isoquinolin-3-yl}-urea], for which the MIC worked out at 16 µg/mL (≈ 49.8 µM).

Turning to `CCNC(=O)Nc1cc2cc(-c3cccc(C#N)c3)cc(C)c2cn1` [Example 107, 1-[6-(3-cyano-phenyl)-8-methyl-isoquinolin-3-yl]-3-ethyl-urea], 1 µg/mL (≈ 3.03 µM) was the least that counted as inhibitory (MIC).

`CCNC(=O)Nc1cc2cccc(Cn3ccnn3)c2cn1` [Example 298, 1-ethyl-3-(8-[1,2,3]triazol-1-ylmethyl-isoquinolin-3-yl)-urea] displayed an MIC of 4 µg/mL (≈ 13.5 µM).

In turn, `CCNC(=O)Nc1cc2c(F)c(-c3ccc(S(N)(=O)=O)cc3)cc(C)c2cn1` [Example 144, 4-[3-(3-ethyl-ureido)-5-fluoro-8-methyl-isoquinolin-6-yl]-benzenesulfonamide] returned a minimal inhibitory concentration (MIC) of 0.5 µg/mL (≈ 1.24 µM).

The compound `CCNC(=O)Nc1cc2cccc(CNc3ccc(OC)nc3)c2cn1.Cl` [Example 302, 1-ethyl-3-{8-[(6-methoxy-pyridin-3-ylamino)-methyl]-isoquinolin-3-yl}-urea hydrochloride] returned an MIC of 8 µg/mL.

In turn, `CCNC(=O)Nc1cc2c(-c3cccnn3)ccc(C)c2cn1.Cl` [Example 282, 1-ethyl-3-(8-methyl-5-pyridazin-3-yl-isoquinolin-3-yl)-urea hydrochloride] gave an MIC of 8 µg/mL.

Turning to `CCNC(=O)Nc1cc2c(-c3ccccc3O)ccc(C)c2cn1` [Example 3, 1-ethyl-3-[5-(2-hydroxy-phenyl)-8-methyl-isoquinolin-3-yl]-urea], the MIC is 1 µg/mL (≈ 3.11 µM).

The compound `CCNC(=O)Nc1cc2c(CNC)ccc(Nc3cccnc3)c2cn1` [Example 270, 1-ethyl-3-{5-[(methylamino)methyl]-8-(pyridin-3-ylamino)-isoquinolin-3-yl}-urea] came in with an MIC of 4 µg/mL (≈ 11.4 µM).

Turning to `CCNC(=O)Nc1cc2cc(-c3ccncc3)cc(C)c2cn1` [Example 21, 1-ethyl-3-(8-methyl-6-pyridin-4-yl-isoquinolin-3-yl)-urea], the MIC amounted to 1 µg/mL (≈ 3.26 µM).

`CCNC(=O)Nc1cc2c(-c3ccc4nccn4c3)ccc(C)c2cn1` [Example 7, 1-ethyl-3-(5-imidazo[1,2-a]pyridin-6-yl-8-methyl-isoquinolin-3-yl)-urea]: the MIC turned out to be 4 µg/mL (≈ 11.6 µM).

`CCNC(=O)Nc1cc2cccc(Nc3cccc(CC(N)=O)c3)c2cn1.Cl` [Example 255, 2-{3-[3-(3-ethyl-ureido)-isoquinolin-8-ylamino]-phenyl}-acetamide hydrochloride] yielded an MIC of 4 µg/mL.

`CCNC(=O)Nc1cc2cccc(Nc3cccc(CC(=O)NCc4ccccc4)c3)c2cn1.Cl` [Example 210, N-benzyl-2-{3-[3-(3-ethyl-ureido)-isoquinolin-8-ylamino]phenyl}-acetamide hydrochloride] registered an MIC of 8 µg/mL.

With `CCNC(=O)Nc1cc2cc(-c3cnc4ccccc4c3)cc(C)c2cn1` [Example 36, 1-ethyl-3-(8-methyl-6-quinolin-3-yl-isoquinolin-3-yl)-urea], the lowest concentration to inhibit growth (MIC) was 0.125 µg/mL (≈ 0.351 µM).

The compound `CCNC(=O)Nc1cc2cc(NCc3ccncc3)cc(C)c2cn1.Cl` [Example 122, 1-ethyl-3-{8-methyl-6-[(pyridin-4-ylmethyl)-amino]-isoquinolin-3-yl}-urea hydrochloride] gave an MIC of 8 µg/mL.

In turn, `CCNC(=O)Nc1cc2cccc(Nc3cccc(CC(=O)O)c3)c2cn1` [Example 209, {3-[3-(3-ethyl-ureido)-isoquinolin-8-ylamino]-phenyl}-acetic acid] displayed an MIC of 4 µg/mL (≈ 11 µM).

`CCNC(=O)Nc1cc2cc(-c3cncnc3)cc(C)c2cn1` [Example 75, 1-ethyl-3-(8-methyl-6-pyrimidin-5-yl-isoquinolin-3-yl)-urea] came in with an MIC of 4 µg/mL (≈ 13 µM).

Turning to `CCNC(=O)Nc1cc2c(Br)ccc(OC)c2cn1` [Example 73, 1-(5-bromo-8-methoxy-isoquinolin-3-yl)-3-ethyl-urea], the MIC is 8 µg/mL (≈ 24.7 µM).

Turning to `CCNC(=O)Nc1cc2cc(NCc3ccccc3)cc(Nc3cccnc3)c2cn1` [Example 239, 1-[6-benzylamino-8-(pyridin-3-ylamino)-isoquinolin-3-yl]-3-ethyl-urea], the MIC was 0.5 µg/mL (≈ 1.21 µM).

Still in this assay, the particulars now being: cation-adjusted Mueller-Hinton Broth supplemented with 3% (v/v) lysed horse blood.
Consider “1-[8-(2,4-dimethyl-imidazol-1-ylmethyl)-isoquinolin-3-yl]-3-ethyl-urea and 1-[8-(2,5-dimethyl-imidazol-1-ylmethyl)-isoquinolin-3-yl]-3-ethyl-urea [Example 296]”, for which the “MIC for S. pneumoniae ATCC 49619” value was determined as 8 µg/mL.
